Assays:
miR-122 = assay: psiCHECK-miR122 dual luciferase reporter assay in Huh7 cells; type: cell-based, human; conditions: for EC50: Homo sapiens, Huh-7, read-out: EC50 (miR-122 inhibitors, luciferase dose response); for Renilla luciferase expression with psiCHECK-miR122 (in words): Huh7, 10 μM (antagomir transfected), normalized to DMSO; for increase in the relative luciferase signal / relative luciferase units (RLU) normalized to a DMSO control: Huh7, psiCHECK-miR122, 10 μM; for increase in the relative luciferase signal: 48 hours; for relative luciferase units (RLU) normalized to a DMSO control: mean ± SD of three independent assays
Text: A miRNA small molecule modifier screen for miR-122 was developed based on the psiCHECK-2 (Promega) reporter plasmid (FIG. 9). This construct expresses both Renilla luciferase as well as firefly luciferase, allowing for the normalization of the signal to account for differential cellular viability and variability in transfection efficiency. The miR-122 target sequence was inserted downstream of the Renilla luciferase gene, between the PmeI and SgfI restriction sites. In another aspect of the invention, plasmids expressing luciferase or another reporter gene such as for example, fluorescent reporters (GFP and variants thereof, DsRed, etc.) or beta-galactosidase can be used to screen for small molecule modifiers of miR-122. The mi-122 target sequence may be upstream or downstream of the reporter gene. Multiple miR-122 target sites can also be inserted into or be present in the plasmid.
The presence of mature miR-122 will lead to a decrease in the Renilla luciferase signal (FIG. 1a). The ability to detect endogenous miR-122 was validated by transfecting the generated psiCHECK-miR122 construct into Huh7 and HeLa cells. After 48 hour incubation, the cells were assayed using a Dual Luciferase Assay Kit (Promega). In another embodiment, the cells can be incubated for about 24-96 hours. The Dual Luciferase Assay Kit provides a means to measure the amount of the luciferases by generating a luminescent signal. Using this assay the luminescence from the firefly luciferase reaction may be quenched while the luminescent reaction of Renilla luciferase can be activated. Other assays and procedures that can determine the amount of the one or more reporter genes or miR-122 expression, activity or function can be used. An example of another assay is Dual-Glo Assay (Promega).
The psiCHECK-miR122 vector was then employed in a small molecule screen in Huh7 cells to discover modifiers of miR-122 function. Other cells that express miR-122 such as HepG2 and Hep3B can be used in addition to or instead of Huh7 cells. An increase in the relative Renilla luciferase signal indicates a miR-122 inhibitor, while a reduction in the luciferase signal indicates a miR-122 activator. A genus of compounds that may have activity as modifiers of miR122 function are the Diversity Set II (1364 compounds) from the NCI Developmental Therapeutics Program was screened using Huh7 cells containing the psiCHECK-miR122 reporter. Cells were exposed to the small molecules and the relative luciferase signal was measured after 48 hours using a Dual Luciferase Assay Kit (Promega). In another embodiment the cells can be exposed to the small molecules for about 24-96 hours. As explained above, other assays and procedures that can determine the amount of the one or more reporter genes or miR-122 expression, activity or function can be used.
The analogs were screened for activity using the previously described miR-122 assay. All cells were treated with 10 μM of a compound and experiments were performed in triplicate to ensure statistical validity. The data was normalized to a 1% DMSO control and is reported in relative luciferase units (RLU). The standard deviation was calculated from three independent assays. Some analogs of miR-122 inhibitor compound 1 are:
Huh7 and HeLa cells were transfected at approximately 60% confluency with either the psiCHECK-Control plasmid (the original psiCHECK-2 plasmid containing no known miRNA binding site) or the psiCHECK-miR122 plasmid (0.5 μg) using X-tremGENE transfection reagent (3:2 reagent/DNA ratio; Roche) in Opti-Mem media (Invitrogen). All transfections were performed in triplicate for statistical analysis. The cells were incubated at 37° C. for 4 hours followed by the replacement of transfection media with standard DMEM growth media. After 48 hours of incubation the media was removed, cells were lysed and assayed with a Dual Luciferase Assay Kit (Promega) using a Wallac VICTOR^3V luminometer with a measurement time of 1 s and a delay time of 2 s. […]

[1] = system: hepatitis C virus (HCV) genotype 1a H77c RNA; assay: HCV replication in Huh7 cells (HCV RNA by quantitative RT PCR); type: cell-based; conditions: Huh7, 10 μM (antagomir transfected), 48 hours
Protocol: Aberrantly regulated miR-122 is involved in the development of heptocellular carcinoma (HCC). miR-122 is a cellular component required by hepatitis C virus (HCV) for viral replication. […] Due to the efficient down-regulation of miRNA-122 by the small molecule inhibitors 1 and 2, both compounds were tested for their ability to inhibit HCV replication in Huh7 cells. The pHtat2Neo/QR/KR/FV/SI plasmid (provided by Dr. Stanley Lemon of University of Texas Medical Branch (UTMB)) was used to generate genotype 1a H77c RNA, which was subsequently transfected into Huh7 cells.^16 The cells were then either transfected with a miR-122 antagomir (positive control), or treated with compounds 1 and 2 (10 μM), or DMSO (negative control). After 48 hours, total RNA was isolated and HCV RNA levels were measured by quantitative RT PCR (FIG. 7). In agreement with previous reports, the antagomir reduced HCV RNA levels to 20%.^6 Moreover, the small molecule miR-122 inhibitors 1 and 2 elicited a reduction in viral load to 48% and 47%, respectively.
The pHtat2Neo/QR/KR/FV/SI plasmid (provided by Dr. Stanley Lemon)^16 was linearized using XbaI (10 units, 50 μL reaction; New England Biolabs), followed by transcription with T7 RNA Polymerase (6 h, 37° C.), and purification on Microcon 10 columns. Huh7 cells were then grown to 60% confluency in a 6 well plate and transfected with 1 μg RNA using X-tremGENE transfection reagent (Roche Applied Science, 3:2 reagent/RNA ratio) in Opti-Mem media (Invitrogen). After a 4 hour incubation at 37° C., the transfection media was removed and replaced with standard growth media (2 mL) supplemented with 10 μM of 1 or 2 (1% DMSO final concentration). All experiments were conducted in triplicate for statistical validation. […] Quantitative RT-PCR was then performed as previously described using the general HCV RT-PCR Primers (5′: […] 3′ (SEQ ID NO:7) and 5′ […] 3′) (SEQ ID NO:8) and GADPH primers (5′ […] 3′ (SEQ ID NO:9) and 5′ […] 3′) (SEQ ID NO:10) as a standard control.

| Structure (SMILES) | EC50 (miR-122) | Renilla luciferase expression with psiCHECK-miR122 (in words) (miR-122) | increase in the relative luciferase signal (miR-122) | relative luciferase units (RLU) normalized to a DMSO control (miR-122) | HCV RNA levels / viral load reduced to [1] |
| --- | --- | --- | --- | --- | --- |
| O=C(Nc1ccc2ccccc2c1)c1ccc(Cl)cc1Cl [Compound 1] | 7.73 ± 0.38 µM | significant increase | 773±38% | 7.73±0.38 RLU | 48% |
| O=S(=O)(c1ccc2c(c1)CCCN2)N1CCC[C@H]2CCCC[C@@H]21 [Compound 2] | 12.5 ± 1.25 µM | significant increase | 1251±125% | 12.51±1.25 RLU | 47% |

Reference: patent publication US20130005759A1, “SMALL MOLECULE MODIFIERS OF MICRORNA MIR-122” (North Carolina State University, priority 2010, published 2013)
